What was measured:
Experiment in all cases: relative viability (nuclei count vs DMSO), 5 days (fraction); higher = more cells survive
Shikonin + AZD7762 = compound: CC(C)=CC[C@@H](O)C1=CC(=O)c2c(O)ccc(O)c2C1=O [Shikonin] + NC(=O)Nc1cc(-c2cccc(F)c2)sc1C(=O)N[C@H]1CCCNC1 [AZD7762] (partner 0.2 µM)
Procedure, shortened: (§1)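 Lung cancer cell lines in 1536-well plates got either a single drug or a fixed anchor-drug dose together with five library-drug doses (not always all listed) in √10 steps, by pin tool, on the day after seeding. Nuclei were counted after 5 days, and relative viability is the treated-to-vehicle ratio of nuclei counts. Values are medians of duplicate plates.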

Shikonin + Vorinostat = compound: CC(C)=CC[C@@H](O)C1=CC(=O)c2c(O)ccc(O)c2C1=O [Shikonin] + O=C(CCCCCCC(=O)Nc1ccccc1)NO [Vorinostat] (partner 1 µM)
Procedure, shortened: as §1

[1] = compound: CC(C)N(CCCNC(=O)Nc1ccc(C(C)(C)C)cc1)C[C@H]1O[C@@H](n2ccc3c(N)ncnc32)[C@H](O)[C@@H]1O + COc1cc2c(Oc3ccc(NC(=O)C4(C(=O)Nc5ccc(F)cc5)CC4)cc3F)ccnc2cc1OCCCN1CCOCC1 [Foretinib] (partner 0.25 µM)
Procedure, shortened: as §1

[2] = compound: CC(C)N(CCCNC(=O)Nc1ccc(C(C)(C)C)cc1)C[C@H]1O[C@@H](n2ccc3c(N)ncnc32)[C@H](O)[C@@H]1O + C[C@@H](Oc1cc(-c2cnn(C3CCNCC3)c2)cnc1N)c1c(Cl)ccc(F)c1Cl [Crizotinib] (partner 1 µM)
Procedure, shortened: as §1

| Cell Line | relative viability (Shikonin + AZD7762; first compound 0.01 µM) | relative viability (Shikonin + AZD7762; first compound 0.1 µM) | relative viability (Shikonin + AZD7762; first compound 0.3162 µM) | relative viability (Shikonin + AZD7762; first compound 1 µM) | relative viability (Shikonin + Vorinostat; first compound 0.01 µM) | relative viability (Shikonin + Vorinostat; first compound 0.1 µM) | relative viability (Shikonin + Vorinostat; first compound 0.3162 µM) | relative viability (Shikonin + Vorinostat; first compound 1 µM) | relative viability ([1]; first compound 0.08 µM) | relative viability ([1]; first compound 0.253 µM) | relative viability ([1]; first compound 2.53 µM) | relative viability ([1]; first compound 8 µM) | relative viability ([2]; first compound 0.08 µM) | relative viability ([2]; first compound 0.253 µM) | relative viability ([2]; first compound 0.8 µM) | relative viability ([2]; first compound 2.53 µM) | relative viability ([2]; first compound 8 µM) | relative viability ([1]; first compound 0.8 µM) |
| --- | --- | --- | --- | --- | --- | --- | --- | --- | --- | --- | --- | --- | --- | --- | --- | --- | --- | --- |
| 201T | 0.638 | 0.657 | 0.625 | 0.603 | 1.02 | 1.03 | 1.02 | 1 | 1.05 | 1.04 | 1.13 | 1.13 | 1.01 | 1.01 | 1.09 | 1.03 | 1.04 |  |
| A549 |  |  |  |  |  |  |  |  | 0.939 | 1.06 | 0.522 | 0.885 | 0.7 | 0.609 | 0.739 | 0.708 | 0.714 | 1.05 |
| A-427 | 0.771 | 0.78 | 0.694 | 0.75 | 0.862 | 0.938 | 0.93 | 0.931 | 1.08 | 1.04 | 1.1 | 0.966 | 0.908 | 0.856 | 0.95 | 0.989 | 0.851 | 1.1 |
| ABC-1 |  | 1.13 | 0.644 | 0.741 | 1.2 | 1.15 | 1.08 | 0.837 | 0.92 | 1 | 1.41 | 1.07 | 0.816 | 0.926 |  | 1.26 | 1.13 |  |
| BEN | 0.744 | 0.807 | 0.718 | 0.694 | 0.567 | 0.619 | 0.606 | 0.617 | 0.629 | 0.935 | 0.567 | 0.697 | 0.836 | 0.768 | 0.825 | 0.715 | 0.921 | 0.689 |
| CAL-12T | 0.606 | 0.751 | 0.622 | 0.736 | 0.842 | 0.802 | 0.832 | 0.583 | 1.2 | 1.06 | 1.2 | 0.944 | 0.626 | 0.548 | 0.63 | 0.563 | 0.529 | 1.07 |
| COR-L23 |  |  |  |  | 0.413 | 0.449 | 0.471 | 0.308 | 0.843 | 1.02 | 0.986 | 0.962 | 0.601 | 0.724 | 0.765 | 0.755 | 0.574 | 1.02 |
| COR-L 105 |  |  |  |  | 0.841 | 0.91 | 0.881 | 0.853 | 1.14 | 0.99 | 1.07 | 1.03 | 0.671 | 0.823 | 0.82 | 0.724 | 0.846 | 1.02 |
| Calu-6 |  |  |  |  |  |  |  |  | 0.847 | 0.872 | 0.839 | 0.823 | 0.744 | 0.863 | 0.79 | 0.771 | 0.781 | 0.923 |
| ChaGo-K-1 | 0.942 | 0.906 | 0.913 | 0.876 | 0.746 | 0.914 | 0.8 | 0.762 | 0.915 | 0.924 | 0.901 | 0.976 | 1.16 | 1.22 | 1.2 | 1.14 | 1.08 | 0.974 |
| EBC-1 |  |  |  |  |  |  |  |  | 0.108 | 0.098 | 0.0973 | 0.121 | 0.207 | 0.199 | 0.18 | 0.178 | 0.171 | 0.1 |
| EKVX | 0.744 | 0.698 | 0.851 | 0.703 | 0.634 | 0.711 | 0.831 | 0.925 | 0.787 | 0.793 | 0.801 | 0.665 | 0.989 | 0.83 | 0.822 | 0.917 | 0.804 | 0.804 |
| EMC-BAC-2 | 1.15 | 1.32 | 1.21 | 1.16 | 0.431 | 0.465 | 0.439 | 0.659 | 0.975 | 0.98 | 1.09 | 0.935 | 0.729 | 0.727 | 0.655 | 0.643 | 0.707 | 1.04 |
| EPLC-272H | 0.194 | 0.265 | 0.241 | 0.176 | 0.378 | 0.353 | 0.536 | 0.377 | 0.688 | 0.469 | 0.845 | 0.669 | 0.944 | 0.986 | 0.869 | 0.895 | 0.822 | 0.73 |
| H3255 | 0.909 | 0.977 | 0.943 | 0.911 | 0.703 | 0.959 | 0.916 | 0.855 | 0.92 | 0.881 | 0.797 | 0.792 | 0.763 | 0.76 | 0.959 | 0.717 | 0.735 | 0.897 |
| HARA | 0.259 | 0.348 | 0.271 | 0.368 | 0.546 | 0.51 | 0.468 | 0.605 | 0.751 | 0.878 | 0.6 | 0.738 | 0.991 | 0.968 | 0.927 | 1.1 | 0.988 | 0.756 |
| HCC-15 | 1.33 | 1.18 | 1.34 | 1.24 | 0.986 | 0.841 | 1.01 | 0.955 | 0.948 | 1.04 | 0.998 | 0.981 | 0.85 | 0.804 | 0.819 | 0.832 | 0.776 | 1.11 |
| HCC-44 | 1.03 | 1.01 | 1.05 | 1.04 | 1.14 | 1.12 | 1.13 | 1.03 |  |  |  |  | 0.788 | 0.864 | 0.832 | 0.859 | 0.744 |  |
| HCC-78 | 0.647 | 0.74 | 0.534 | 0.694 | 0.505 | 0.472 | 0.514 | 0.415 | 0.509 | 0.497 | 0.524 | 0.602 | 0.312 | 0.304 | 0.329 | 0.374 | 0.34 | 0.5 |
| HCC-366 | 0.281 | 0.25 | 0.308 | 0.269 | 0.367 | 0.425 | 0.323 | 0.484 | 0.89 | 0.939 | 0.9 | 0.867 | 0.375 | 0.545 | 0.654 | 0.526 | 0.478 | 0.975 |

Reference: the supplement of paper PMC10307832
